# According to paper PMC6881558 (Biochimica et biophysica acta. General subjects, 2019):
# Where “and” joins values, the source holds several entries; their conditions need not be identical. Identical values can stand only once.
# Assays:
# Bgp = Bgp (Borrelia burgdorferi, UniProt Q9F952); test: UV spectrophotometric MTN activity and kinetics assay, Bgp; assay type: biochemical; conditions: pH 7, mean ± SEM; for Km: substrate kinetics
# MtnN = MtnN (Borrelia burgdorferi, UniProt O50860); test: UV spectrophotometric MTN activity and kinetics assay, MtnN; assay type: biochemical; conditions: pH 7, mean ± SEM; for Km: substrate kinetics
# Pfs = Pfs (Borrelia burgdorferi, UniProt O50162); test: UV spectrophotometric MTN activity and kinetics assay, Pfs; assay type: biochemical; conditions: pH 5, mean ± SEM; for Km: substrate kinetics
# Trichomonas vaginalis = conditions: cultured parasites; cited from earlier work
# [1] = system: B. burgdorferi strain N40; test: BacTiter-Glo bioluminescent cell viability assay; assay type: cell-based, Borrelia burgdorferi; conditions: Borreliella burgdorferi, N40, 24 h, read-out: IC50 (cell viability)
# Plasmodium falciparum = conditions: purine-less cell death in malarial cultures; cited from earlier work
# [2] = system: C[C@H]1O[C@@H](n2cnc3c(N)ncnc32)[C@H](O)[C@@H]1O; test: UV spectrophotometric MTN activity and kinetics assay, Bgp; assay type: biochemical, Borrelia burgdorferi; conditions: other: Bgp, substrate kinetics, pH 7, mean ± SEM
# [3] = substrate: C[C@H]1O[C@@H](n2cnc3c(N)ncnc32)[C@H](O)[C@@H]1O; test: UV spectrophotometric MTN activity and kinetics assay, Pfs; assay type: biochemical, Borrelia burgdorferi; conditions: other: Pfs, substrate kinetics, pH 5, mean ± SEM
# [4] = substrate: C[C@H]1O[C@@H](n2cnc3c(N)ncnc32)[C@H](O)[C@@H]1O; test: UV spectrophotometric MTN activity and kinetics assay, MtnN; assay type: biochemical, Borrelia burgdorferi; conditions: other: MtnN, substrate kinetics, pH 7, mean ± SEM
molecule,measurement,setting,value
5’-methylthioadenosine [MTA],kcat,Bgp,1.85 ± 0.333 s⁻¹
same,Km,Bgp,0.49 ± 0.01 µM
same,kcat,MtnN,1.55 ± 0.083 s⁻¹
same,Km,MtnN,9.1 µM and 9.09 µM
same,kcat,Pfs,1.78 ± 0.05 s⁻¹
same,Km,Pfs,0.61 ± 0.16 µM
Nc1nc(F)nc2c1ncn2[C@H]1C[C@H](O)[C@@H](CO)O1 [2-fluoro-2’-deoxyadenosine],IC50,Trichomonas vaginalis,106 nM
"CCCCSCC1CN(Cc2c[nH]c3c(N)ncnc23)CC1O (centres unmarked) [BuT-DADMe-ImmA, 1-[(9-deazaadenin-9-yl)methyl]-3-hydroxy-4-(butylthiomethyl)pyrrolidine]",IC50,[1],0.38 µg/mL and ~100 nM
"Nc1ncnc2c(C3N[C@H](CO)[C@@H](O)[C@H]3O)c[nH]c12 (some centres unmarked) [Immucillin-A (ImmA), Immucillin-A]",IC50,Plasmodium falciparum,35 nM
"CSCC1CN(Cc2c[nH]c3c(N)ncnc23)CC1O (centres unmarked) [MT-DADMe-ImmA, 1-[(9-deazaadenin-9-yl)methyl]-3-hydroxy-4-(methylthiomethyl) pyrrolidine]",IC50,[1],0.31 µg/mL and ~100 nM
"Nc1ncnc2c1ncn2[C@@H]1O[C@H](CSCC[C@H](N)C(=O)O)[C@@H](O)[C@H]1O [SAH, S-adenosylhomocysteine]",kcat,Bgp,1.75 ± 0.2 s⁻¹
same,Km,Bgp,1.96 ± 0.67 µM
same,kcat,MtnN,0.55 ± 0.017 s⁻¹
same,Km,MtnN,2.04 ± 0.44 µM
same,kcat,Pfs,1.57 ± 0.083 s⁻¹
same,Km,Pfs,0.75 ± 0.16 µM
CC1(C)S[C@@H]2[C@H](NC(=O)[C@H](N)c3ccccc3)C(=O)N2[C@H]1C(=O)O [ampicillin],IC50,[1],1.07 µg/mL and 3.01 µM
Bgp (Borreliella burgdorferi),Km,[2],1.79 ± 0.52 µM
same,kcat,[2],1.53 ± 0.467 s⁻¹
same,kcat/Km,[2],850000 ± 267000 M⁻¹ s⁻¹
Pfs (Borreliella burgdorferi B31) (protein) MILIISAMQEESEEINKILDNKEEIVLNDYLENKKIYKGKILGKDVISLTTGIGKVNAATWSSQIISKYKITHIINSGSSGGIKENSNLKILDIIVSSETAYYDFDLTKFGHKIGQVPNLPQKFKADEELLKKVANIVDNKLLNIDIHIGLILTGDQFVDNEKNLETIKKNFKDALAVDMEGAAIAQVAHIFKIPFIIIRSISDLPNNKDNHIDFNKFLKTSSINSSKMTKELIRLI,Km,[3],1.37 ± 0.37 µM
same,kcat,[3],2.7 ± 0.15 s⁻¹
same,kcat/Km,[3],1.97e+06 ± 400000 M⁻¹ s⁻¹
MtnN (Borreliella burgdorferi B31) (protein) NESKINTPNENSQSNILIISATKAEIEEINKIIQNKKYISIEEHRRKKKIAIGKLMDHNIITIATGVGKINTALWTSYIISKYKISHIINAGVASGIYSDKNKFIKIGDVVISTETTSYDFDLHRFGYEIGHVPEHPKKFKANTALIRKTSKIKINNITSYMGLIITGDQFIDHQTFQEIPEEFENAIAIDMESAAMAQVAYGFKIPFIIIRGISDIVNNENNYDDYKKFLKKASSSSAKIVENLIKLM,Km,[4],10.5 µM and 10.46 ± 0.75 µM
same,kcat,[4],0.733 ± 0.0167 s⁻¹
same,kcat/Km,[4],66700 ± 5000 M⁻¹ s⁻¹
